# Experimental data: patent US20250195483A1, “SPIRO PIPERIDINE DERIVATIVES AS INHIBITORS OF APOL1 AND METHODS OF USING SAME” (Vertex Pharmaceuticals Incorporated, priority 2022, published 2025)
# Biological target: T1, APOL1 (Homo sapiens, UniProt O14791)
# T1 sequence (O14791 1-398): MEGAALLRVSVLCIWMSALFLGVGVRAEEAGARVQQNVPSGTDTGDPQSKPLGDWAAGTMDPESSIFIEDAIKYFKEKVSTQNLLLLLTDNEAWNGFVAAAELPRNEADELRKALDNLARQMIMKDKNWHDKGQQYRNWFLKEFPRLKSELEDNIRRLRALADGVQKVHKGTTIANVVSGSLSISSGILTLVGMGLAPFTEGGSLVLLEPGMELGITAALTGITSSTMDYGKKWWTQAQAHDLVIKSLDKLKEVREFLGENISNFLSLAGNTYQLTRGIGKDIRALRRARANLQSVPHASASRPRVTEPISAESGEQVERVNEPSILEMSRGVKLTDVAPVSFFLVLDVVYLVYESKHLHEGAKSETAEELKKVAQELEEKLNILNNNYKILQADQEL
# Experiment: MultiTox-Fluor Multiplex Cytotoxicity Assay, tet-inducible APOL1 T-REx-HEK293 cells (G0, G1 or G2 clone not specified for Table 20)
# Format: cell-based
# Settings: tet-induced, 24 hours with compound, ratio of dead to live cells, read-out: IP50 (i.e., IC50 for cell proliferation)
# Method in brief: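 HEK293 T-REx cells with tet-inducible APOL1 G0, G1 or G2 clone, 23,400/well, treated with tetracycline plus compound (top 10 μM, 10-point 3-fold, duplicate) for 24 h at 37° C. MultiTox-Fluor dead/live fluorescence ratio, normalized to no-tet (100% viability) and 50 ng/mL tet (0% viability) controls, then curve-fitted.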
row,Compound,IC50
1,CS(=O)(=O)CCn1cc(CN2CCC3(CC2)OCC(O)c2ccc(Cl)cc23)cn1 (stereo not drawn) [Compound 130],50 to 500 nM
2,"C[C@H]1CC2(CCN1Cc1cn(CCS(C)(=O)=O)nn1)OC(C)(C)c1ccc(Cl)cc12 (single isomer, unassigned) [Compound 291, (2′S)-5-chloro-1,1,2′-trimethyl-1′-[[1-(2-methylsulfonylethyl)triazol-4-yl]methyl]spiro[isobenzofuran-3,4′-piperidine]]",≥ 500 nM
3,Cc1cc(Cn2cc(CN3CC[C@]4(C[C@@H]3C)OCCc3ccc(Cl)cc34)nn2)cc(=O)[nH]1 [Compound 180],50 to 500 nM
4,COCn1cc(CN2CC[C@]3(C[C@@H]2C)OCCc2ccc(Cl)cc23)nn1 [Compound 155],50 to 500 nM
5,C[C@H]1C[C@@]2(CCN1Cc1cn(C3CC(=O)N(C)C3)nn1)OCCc1ccc(Cl)cc12 (stereo partly drawn) [Compound 146],≤ 50 nM
6,C[C@H]1C[C@@]2(CCN1Cc1cnn(CCS(C)(=O)=O)c1)OC[C@H](O)c1ccc(Cl)cc12 [Compound 132],≤ 50 nM
7,COC(=O)c1ccc(CN2CCC3(CC2)OC(C(N)=O)c2ccc(Cl)cc23)nc1 (stereo not drawn) [Compound 250],50 to 500 nM
8,C[C@H]1C[C@@]2(CCN1Cc1ccccn1)OCCc1ccc(Cl)cc12 [Compound 138],≥ 500 nM
9,C[C@H]1C[C@@]2(CCN1Cc1cnn(C(C)(C)C)c1)OCCc1ccc(Cl)cc12 [Compound 120],50 to 500 nM
10,O=C1Nc2ccc(Cl)cc2C12CCN(Cc1cn[nH]c1)CC2 [Compound 11],50 to 500 nM
11,NC(=O)C1OC2(CCN(Cc3cnn4c3NCCC4)CC2)c2cc(Cl)ccc21 (stereo not drawn) [Compound 254],≥ 500 nM
12,Cc1ccc2c(c1)C1(CCN(Cc3cnn(CCO)c3)[C@@H](C)C1)OCC2 (stereo partly drawn) [Compound 99],≥ 500 nM
13,CN1C(=O)C2(CCN(Cc3cnn(CCO)c3)CC2)c2cc(Cl)ccc21 [Compound 55],≥ 500 nM
14,"CC(CO)(CO)Cn1cc(CN2CCC3(CC2)C(=O)Nc2ccc(Cl)cc23)nn1 [Compound 41, 5-chloro-1′-[[1-[3-hydroxy-2-(hydroxymethyl)-2-methyl-propyl]triazol-4-yl]methyl]spiro[indoline-3,4′-piperidine]-2-one]",50 to 500 nM
15,Cc1ccc2c(c1)[C@@]1(CCN(Cc3cnn(CC(C)(CO)CO)c3)[C@@H](C)C1)OCC2 [Compound 101],50 to 500 nM
16,O=C1Nc2ccc(Cl)cc2C12CCN(Cc1ccc(OC(F)F)cc1)CC2 [Compound 19],≥ 500 nM
17,"CC(C)(O)[C@H](O)Cn1cc(CN2CCC3(CC2)OC(C(N)=O)c2ccc(Cl)cc23)cn1 (stereo partly drawn) [Compound 278, 5-chloro-1′-[[1-[(2R)-2,3-dihydroxy-3-methyl-butyl]pyrazol-4-yl]methyl]spiro[1H-isobenzofuran-3,4′-piperidine]-1-carboxamide]",≤ 50 nM
18,CNc1ncc(CN2CCC3(CC2)OC(C(N)=O)c2ccc(Cl)cc23)cn1 (stereo not drawn) [Compound 244],≤ 50 nM
19,Cc1ccc2c(c1)C1(CCN(Cc3cn[nH]c3)[C@@H](C)C1)OCC2 (stereo partly drawn) [Compound 97],≥ 500 nM
20,Cc1ccc2c(c1)[C@]1(CCN(Cc3cnc(NC(C)(C)CO)nc3)[C@@H](C)C1)OCC2 [Compound 94],≤ 50 nM

row,Compound,IC50
1,Cn1cc(CN2CCC3(CC2)OC(C(N)=O)c2ccc(Cl)cc23)c(=O)n(C)c1=O (stereo not drawn) [Compound 271],≥ 500 nM
2,CC(C)n1cc(Cn2cc(CN3CC[C@]4(C[C@@H]3C)OCCc3ccc(Cl)cc34)nn2)c(=O)[nH]c1=O [Compound 169],≤ 50 nM
3,C[C@H]1C[C@@]2(CCN1Cc1cnc(N)nc1)OCCc1ccc(Cl)cc12 [Compound 123],≤ 50 nM
4,CN1C(=O)C2(CCN(Cc3cnn(CCS(C)(=O)=O)c3)CC2)c2cc(OC(F)F)ccc21 [Compound 85],≥ 500 nM
5,C[C@H]1C[C@@]2(CCN1Cc1cnn(CC(=O)N(C)C)c1)OCCc1ccc(Cl)cc12 [Compound 102],50 to 500 nM
6,Cn1cc(CN2CCC3(CC2)OC(C(N)=O)c2ccc(Cl)cc23)ccc1=O (stereo not drawn) [Compound 253],50 to 500 nM
7,"COc1ccc2c(c1)C1(CCN(Cc3cnn(-c4ccccc4)c3)CC1)OC2C(N)=O (stereo not drawn) [Compound 296, 6-methoxy-1′-((1-phenyl-1H-pyrazol-4-yl)methyl)-3H-spiro[isobenzofuran-1,4′-piperidine]-3-carboxamide]",≥ 500 nM
8,NC(=O)C1OC2(CCN(Cc3cnc[nH]3)CC2)c2cc(Cl)ccc21 (stereo not drawn) [Compound 234],≤ 50 nM
9,CNS(=O)(=O)CCn1cc(CN2CC[C@]3(C[C@@H]2C)OCCc2ccc(Cl)cc23)cn1 [Compound 126],≤ 50 nM
10,Cc1cc(CN2CCC3(CC2)OC(C(N)=O)c2ccc(Cl)cc23)on1 (stereo not drawn) [Compound 258],≥ 500 nM
11,Cn1cc(CN2CCC3(CC2)OCCc2ccccc23)cn1 [Compound 127],≥ 500 nM
12,N#Cc1cc(CN2CCC3(CC2)C(=O)Nc2ccc(Cl)cc23)ccn1 [Compound 20],≥ 500 nM
13,CNC(=O)c1ccc(CN2CCC3(CC2)OC(C(N)=O)c2ccc(Cl)cc23)cc1 (stereo not drawn) [Compound 233],≤ 50 nM
14,CS(=O)(=O)c1ccc(CN2CCC3(CC2)OC(C(N)=O)c2ccc(Cl)cc23)c(F)c1 (stereo not drawn) [Compound 224],≥ 500 nM
15,"CNC(=O)C1OC2(CCN(Cc3cnn(-c4ccccc4)c3)CC2)c2cc(OC)ccc21 (stereo not drawn) [Compound 297, 6-methoxy-N-methyl-1′-((1-phenyl-1H-pyrazol-4-yl)methyl)-3H-spiro[isobenzofuran-1,4′-piperidine]-3-carboxamide]",≥ 500 nM
16,NC(=O)C1OC2(CCN(Cc3ccno3)CC2)c2cc(Cl)ccc21 (stereo not drawn) [Compound 259],≥ 500 nM
17,NC(=O)C1OC2(CCN(Cc3cnc(C4CC4)o3)CC2)c2cc(Cl)ccc21 (stereo not drawn) [Compound 251],50 to 500 nM
18,"Cc1ccc2c(c1)C1(CCN(Cc3ccc(OCC(C)(C)N)nc3)CC1)OC2(C)C [Compound 288, 2-methyl-1-[[5-[(1,1,5-trimethylspiro[isobenzofuran-3,4′-piperidine]-1′-yl)methyl]-2-pyridyl]oxy]propan-2-amine]",50 to 500 nM
19,"CN1C(=O)C2(CCN(C[C@H]3C[C@@H](NC(=O)c4cc(C5CC5)no4)C3)CC2)c2cc(Cl)ccc21 [Compound 60, N-[3-[(5-chloro-1-methyl-2-oxo-spiro[indoline-3,4′-piperidine]-1′-yl)methyl]cyclobutyl]-3-cyclopropyl-isoxazole-5-carboxamide]",≥ 500 nM
20,Cc1cc2ncc(CN3CCC4(CC3)OC(C(N)=O)c3ccc(Cl)cc34)cn2n1 (stereo not drawn) [Compound 231],50 to 500 nM

row,Compound,IC50
1,C[C@H]1C[C@@]2(CCN1Cc1cn(CC(=O)NCC3(C#N)CC3)nn1)OCCc1ccc(Cl)cc12 [Compound 171],≤ 50 nM
2,CS(=O)(=O)CCn1cc(CN2CCC3(CC2)C(=O)Nc2ccc(F)cc23)cn1 [Compound 21],≥ 500 nM
3,CN1C(=O)C2(CCN(Cc3cn(CCO)nn3)CC2)c2cc(Cl)ccc21 [Compound 43],≥ 500 nM
4,CCN1C(=O)C2(CCN(Cc3cnn(CCS(C)(=O)=O)c3)CC2)c2cc(Cl)ccc21 [Compound 48],50 to 500 nM
5,CC(CO)(CO)Cn1cc(CN2CCC3(CC2)C(=O)Nc2ccc(Cl)cc23)cn1 [Compound 2],≤ 50 nM
6,NC(=O)C1OC2(CCN(Cc3cnn(C4CC4)c3N)CC2)c2cc(Cl)ccc21 (stereo not drawn) [Compound 257],50 to 500 nM
7,C[C@H]1C[C@@]2(CCN1Cc1cn(CCCc3nc(=O)[nH][nH]3)nn1)OCCc1ccc(Cl)cc12 [Compound 160],50 to 500 nM
8,Cc1ncc(CN2CCC3(CC2)OC(C(N)=O)c2ccc(Cl)cc23)cn1 (stereo not drawn) [Compound 215],≥ 500 nM
9,C[C@H]1C[C@@]2(CCN1Cc1cn(CC3(O)CCOC3)nn1)OCCc1ccc(Cl)cc12 (stereo partly drawn) [Compound 149],≤ 50 nM
10,"CC1CN(Cc2cnn(C)c2)CCC12OCCc1ccc(Cl)cc12 (stereo not drawn) [Compound 140, 7-chloro-3′-methyl-1′-[(1-methylpyrazol-4-yl)methyl]spiro[isochromane-1,4′-piperidine]]",≥ 500 nM
11,Cc1cc(CN2CC[C@]3(C[C@@H]2C)OCCc2ccc(Cl)cc23)[nH]n1 [Compound 109],≤ 50 nM
12,C[C@H]1C[C@@]2(CCN1Cc1cnn(C)c1)OCC(O)c1ccc(Cl)cc12 (stereo partly drawn) [Compound 131],≤ 50 nM
13,Cn1cc(CN2CCC3(CC2)OC(C(N)=O)c2ccc(Cl)cc23)cn1 (stereo not drawn) [Compound 216],≤ 50 nM
14,"CS(=O)(=O)CCn1cc(CN2CCC3(CC2)C(=O)N(CCO)c2ccc(Cl)cc23)cn1 [Compound 45, 5-chloro-1-(2-hydroxyethyl)-1′-[[1-(2-methylsulfonylethyl)pyrazol-4-yl]methyl]spiro[indoline-3,4′-piperidine]-2-one]",50 to 500 nM
15,Cc1cc(CN2CCC3(CC2)OC(C(N)=O)c2ccc(Cl)cc23)nn1C (stereo not drawn) [Compound 247],≥ 500 nM
16,C[C@H]1C[C@@]2(CCN1Cc1cnn(C3CCS(=O)(=O)C3)c1)OCCc1ccc(Cl)cc12 (stereo partly drawn) [Compound 116],≤ 50 nM
17,Cc1nc(Cn2cc(CN3CC[C@]4(C[C@@H]3C)OCCc3ccc(Cl)cc34)nn2)sc1C(N)=O [Compound 165],≤ 50 nM
18,C[C@H]1C[C@@]2(CCN1Cc1cn(CC3CC(=O)N(C)C3)nn1)OCCc1ccc(Cl)cc12 (stereo partly drawn) [Compound 145],50 to 500 nM
19,"CCc1ccc2c(c1)C1(CCN(Cc3cnn(-c4ccccc4)c3)CC1)OC2C(N)=O (stereo not drawn) [Compound 205, 5-ethyl-1′-[(1-phenylpyrazol-4-yl)methyl]spiro[1H-isobenzofuran-3,4′-piperidine]-1-carboxamide]",≤ 50 nM
20,Cc1ccc(NCCn2cc(CN3CC[C@]4(C[C@@H]3C)OCCc3ccc(Cl)cc34)nn2)nn1 [Compound 159],50 to 500 nM
